Activity calls are given as the source filed them. The calls are words filed in the database; no cut-off is given here.
Assays:
[1] = Binding affinity to oligonucleotide duplex DNA D2e at drug-duplex molar ratio of 2:1 assessed as change in melting temperature by UV melting experiment
[2] = Binding affinity to oligonucleotide duplex DNA D2a at 6.6 uM by circular dichroism
[3] = Binding affinity to oligonucleotide duplex DNA D6 at drug-duplex molar ratio of 2:1 assessed as change in melting temperature by UV melting experiment
[4] = Binding affinity to oligonucleotide hairpin duplex DNA D2d by fluorescence titration experiment
[5] = Binding affinity to oligonucleotide duplex DNA D1 at drug-duplex molar ratio of 2:1 assessed as change in melting temperature by UV melting experiment
[6] = Binding affinity to oligonucleotide duplex DNA D3 at drug-duplex molar ratio of 2:1 assessed as change in melting temperature by UV melting experiment
[7] = Binding affinity to oligonucleotide duplex DNA D2a at drug-duplex molar ratio of 2:1 assessed as change in melting temperature by UV melting experiment
[8] = Binding affinity to oligonucleotide duplex DNA D4 at drug-duplex molar ratio of 2:1 assessed as change in melting temperature by UV melting experiment
[9] = Binding affinity to oligonucleotide duplex DNA D5 at drug-duplex molar ratio of 2:1 assessed as change in melting temperature by UV melting experiment
[10] = Binding affinity to oligonucleotide hairpin duplex DNA D2d at 26 uM by UV titration experiment
[11] = Binding affinity to oligonucleotide duplex DNA D2b at drug-duplex molar ratio of 2:1 assessed as change in melting temperature by UV melting experiment
[12] = Binding affinity to oligonucleotide duplex DNA D7 at drug-duplex molar ratio of 2:1 assessed as change in melting temperature by UV melting experiment
[13] = Binding affinity to oligonucleotide duplex DNA D8 at drug-duplex molar ratio of 2:1 assessed as change in melting temperature by UV melting experiment
[14] = Binding affinity to oligonucleotide duplex DNA D2c at drug-duplex molar ratio of 2:1 assessed as change in melting temperature by UV melting experiment
[15] = Binding affinity to oligonucleotide hairpin duplex DNA D2d by isothermal titration calorimetry
[16] = Binding affinity to oligonucleotide duplex DNA D2a at 10 uM by circular dichroism

Activity [2]	ΔTm [6] [°C]	SMILES	ΔTm [1] [°C]	ΔTm [3] [°C]	Ka [4] [×10⁶ /M]	ΔTm [5] [°C]	ΔTm [7] [°C]	ΔTm [8] [°C]	ΔTm [9] [°C]	Activity [10]	ΔTm [11] [°C]	ΔTm [12] [°C]	ΔTm [13] [°C]	ΔTm [14] [°C]	Ka [15] [×10⁵ /M]	Activity [16]
Active	39.5	COc1cc2c(cc1OCCCN1CCN(CCN3C(=O)c4cccc5cccc(c45)C3=O)CC1)N=C[C@@H]1CCCN1C2=O	35	37.3	3.8	9	34	36.8	30.3	Active	34.3	31.5	35	6.5	7.8	
		COc1cc2c(cc1OCCCOc1ccc(-c3nc4ccc(N5CCN(C)CC5)cc4[nH]3)cc1)N=C[C@@H]1CCCN1C2=O	37	34.5	5.6	10	33	34.3	32.5	Active	39	27	0	9	8.9	Active

— ChEMBL document CHEMBL1140847, “Spectroscopic and calorimetric studies on the DNA recognition of pyrrolo[2,1-c][1,4]benzodiazepine hybrids” (Bioorg Med Chem, 2009)
